Patent EP4818189A1, “NITROGEN-CONTAINING HETEROCYCLIC COMPOUND, AND PREPARATION METHOD AND USE THEREFOR” (Chengdu Di'ao Pharmaceutical Group Co., Ltd., priority 2023, dated 2025)
Where a SMILES comes first, the peptide text is derived from it. [ ]: non-standard residue; d: D form. The star is where a group is joined. pGlu = O=C1CC[C@@H](C(=O)O)N1; Aze = O=C(O)[C@@H]1CCN1; dAze = O=C(O)[C@H]1CCN1; Bz = O=C(c1ccccc1)*

Legend:
[1] = Plasma stability determination; format: in vitro ADME; details: mouse
Protocol: Mouse plasma (purchased from IPHASE, Batch No. 23B007) was thawed in a 37°C water bath, centrifuged to remove an upper clot, and the pH value was recorded as 7-8. An appropriate volume of stock solution of test compound in acetonitrile (at a concentration of 10 mM) was diluted with acetonitrile to 1 mM, so as to serve as a test drug solution. An appropriate volume of test drug solution was added to a corresponding volume of plasma and mixed uniformly, such that the concentration of the test compound in the incubation system was 5 µM, and the content of the organic solvent acetonitrile was 0.5%. 50 µL of mixed plasma was transferred into a 96-well plate (N=2), incubated at 37°C in a water bath for a designated time, and then added with 300 µL of internal standard-containing methanol solution to terminate the reaction. The reaction mixture was vortexed and centrifuged, and the supernatant was subjected to LC-MS/MS analysis. Propantheline and ZZL-7 were used as positive controls, and processed and tested under the same conditions as the test compound. A curve was plotted with the remaining percentage of the compound against incubation time to obtain a k value, and the half-life of each compound was calculated.

[2] = Mouse pharmacokinetic detection; format: in vivo; details: CD1 mice
Protocol: The detection was carried out in 6-8-week-old CD1 mice (purchased from: Speifu (Beijing) Biotechnology Co., Ltd.). […] The concentration of the compound in a plasma sample was analyzed by LC-MS/MS. Pharmacokinetic calculation was carried out by using WinNonlin (Phoenix™, Version 8.3) or other similar software. The following pharmacokinetic parameters were calculated based on plasma concentration and time data: Oral administration: AUClast, bioavailability (F). Statistical calculation was carried out on the above parameter data. Table 3 Pharmacokinetic data of some compounds administered orally in mice

MDR1-MDCK II cells = assay: Permeability detection in MDR1-MDCK II cell monolayer; format: in vitro ADME; details: permeability rank
Protocol: (§1) MDR1-MDCK II cells (imported from the Netherlands Cancer Institute) were seeded in a 96-well cell plate at a density of 3.33×10^5 cells/mL, and cultured in a carbon dioxide incubator for 4-7 days to form a cell monolayer. A Hank's balanced salt solution (HBSS, pH 7.40 ± 0.05) containing 10.0 mM 4-(2-hydroxyethyl)-1-piperazineethanesulfonic acid (HEPES) was used as a transport buffer. A DMSO stock solution of compound was diluted to 2 µM (DMSO < 1.0%) with the transport buffer, and added to the basolateral (B) side and apical (A) side respectively (N=2). The bidirectional (A-B and B-A) incubation concentration of Digoxin, a P-gp substrate, was 10 µM, and the unidirectional (A-B) incubateion concentrations of Nadolol, a low-permeability control, and Metoprolol, a high-permeability control, were 2 µM. The cell plate was incubated in a 5% CO2 cell incubator at 37°C and saturated humidity for 2.5 hours, then final samples from a receiver side and a donor side were collected, added with the transport buffer and a precipitant at an appropriate ratio, and analyzed by LC-MS/MS, and an apparent permeability coefficient, an efflux ratio and a solution recovery were calculated.
(§2) After the transport experiment was completed, an integrity of the MDR1-MDCK II cell layer was detected by a lucifer yellow detection experiment. Residual solution in apical and basolateral wells was removed, and 75 µL of transport buffer containing 100 µM lucifer yellow was added to the apical wells and 250 µL of transport buffer was added to the basolateral wells respectively. The cell plate was incubated in a 5% CO2 cell incubator at 37 °C and saturated humidity for 30 minutes, then 20 µL of sample was taken from the apical side and mixed with 60 µL of transport buffer and 80 µL of sample was taken from the basolateral side. A relative fluorescence intensity was detected by a microplate reader at excitation/emission wavelengths of 425/528 nm, and the permeability of Lucifer Yellow was calculated.
(§3) The apparent permeability coefficient (Papp), efflux ratio (ER) and %solution recovery were respectively calculated by following formulas: Papp = (VR)/(Area × Time) × ([drug]receiver)/([drug]initial,donor) = (VR)/(Area × Time) × (CR)/(C0) [formula] Efflux Ratio = (Papp (B−A))/(Papp (A−B)) [formula] %Solution Recovery = (CR × VR + CD × VD)/(C0 × VD) × 100 [formula]
(§4) VR was the volume of solution in the receiver side (0.075 mL for the apical side and 0.25 mL for the basolateral side respectively), VD was the volume of solution in the donor side (0.075 mL for the apical side and 0.25 mL for the basolateral side respectively), CR was the peak area ratio of compound in the receiver side, CD was the peak area ratio of compound in the donor side, C0 was the initial peak area ratio of compound in the donor side, Area was the surface area (0.143 cm^2) of the cell monolayer, and Time was incubation time of 9000 seconds (150 minutes). Papp(B-A) and Papp(A-B) respectively referred to the apparent permeability coefficient from the basolateral side to the apical side and the apparent permeability coefficient from the apical side to the basolateral side.
(§5) The permeability of Lucifer Yellow(%Lucifer Yellow) was calculated by the following formula: %Lucifer Yellow = (VBasolateral × RFUBasolateral)/(VApical × RFUApical + VBasolateral × RFUBasolateral) × 100 [formula]
(§6) RFUApical and RFUBasolareral respectively referred to relative fluorescence intensities of lucifer yellow in the apical side and the basolateral side. VApical and VBasolateral respectively referred to loading volumes (0.075 mL and 0.25 mL respectively) in the apical side and the basolateral side. Table 2 Permeability data of some compounds

[3] = as above; format: in vitro ADME; details: dog, pH 7.4, MDR1-MDCK II cells, 2 µM, 2.5 hours; for Papp A→B at 2.5 h, 2 µM: apical to basolateral; for Papp B→A at 2.5 h, 2 µM: basolateral to apical
Protocol: as §1, §2, §3, §4, §5, §6

[4] = Rat pharmacokinetic detection; format: in vivo; details: plasma, male SD rats; for AUC(0-t): oral gavage 15 mg/kg; for bioavailability: oral gavage 15 mg/kg vs intravenous 10 mg/kg
Protocol: The detection was carried out in 6-8-week-old male SD rats (purchased from:SPF (Beijing) Biotechnology Co., Ltd.). A test compound was dissolved in a solution containing 10% DMSO, 15% Solutol HS and 75% (aqueous solution of 10% hydroxypropyl-β-cyclodextrin), and administered via intravenous injection (10 mg/kg) or oral gavage (15 mg/kg). A concentration of the compound in a plasma sample was analyzed by LC-MS/MS. Pharmacokinetic calculation was carried out by using WinNonlin (Phoenix™, Version 8.3). The following pharmacokinetic parameters were calculated based on plasma concentration and time data: Oral administration: AUClast, bioavailability (F). Statistical calculation was carried out on the above parameter data. Table 4 Pharmacokinetic data of some compounds administered orally in rats

CUMS model mice [5] = assay: Tail suspension test in CUMS model mice, intravenous administration; format: in vivo, C57/B6 mice; details: single i.v. dose 100 mg/kg, test 2 hours later (FIG. 4)
Source text: (§7) 6-8-week-old C57/B6 mice (purchased from: Jinan Pengyue Laboratory Animal Breeding Co., Ltd.) were used to establish a 28-day chronic unpredictable mild stress (CUMS) animal model, and an experimental procedure referred to document description^[1,2]. After one week of acclimatization, seven experiments, including food and water deprivation, foot shock, wet bedding, cage tilting, restraint stress, shaker stress, and olfactory stimulation, were randomly applied to the animals within one week to achieve unpredictability, and the stimulation was continued for 4 consecutive weeks. The successful establishment of the model was verified by an open field test (OFT)^[3], and then pharmacodynamic evaluation was carried out. The animals were divided into a blank control group (Control), a model group (Model), a vehicle control group (Vehicle), a fluoxetine control group and a compound group in the experiment. The test compound was intravenously (i.v.) administered once at a dose of 100 mg/kg, a tail suspension test (TST) and a forced swimming test (FST)^[4,5] were carried out 2 hours later to evaluate the depression of the mice, and prolonged immobility time in the TST and the FST indicated behavioral despair of the mice. After summary statistics of data, SPSS data statistics software was used for analysis, and Graph Pad software was used for graph generation based on SPSS analysis results.

CUMS model mice [6] = assay: Forced swimming test in CUMS model mice, intravenous administration; format: in vivo, C57/B6 mice; details: single i.v. dose 100 mg/kg, test 2 hours later (FIG. 3)
Source text: as §7

[7] = plasma, oral gavage 10 mg/kg vs intravenous 10 mg/kg
[8] = in vivo, oral gavage 10 mg/kg vs intravenous 10 mg/kg
[9] = plasma, ZZL-7 administered at 100 mg/kg via PO

SMILES	half-life at 5 µM [1] [h]	AUC(0-t) ([2]; plasma, oral gavage 10 mg/kg) [ng·h/mL]	bioavailability [2, 7] [%]	also measured
CC(C)C[C@H](NC(=O)[C@@H]1CCC(=O)N1)C(=O)O [D4-pEL, reference compound] ([pGlu]-Leu-OH)		555	7.7	Rank Papp (MDR1-MDCK II cells): Low; Papp A→B at 2.5 h, 2 µM [3]: < 0.216 ×10⁻⁶ cm/s; Papp B→A at 2.5 h, 2 µM [3]: 0.302 ×10⁻⁶ cm/s; AUC(0-t) [4]: 98.6 ng·h/mL; bioavailability [4]: 1.04%
CC(=O)N1CC[C@@H]1C(=O)N[C@@H](c1ccccn1)C(C)C [B-2-8]	> 4.82	2550	72.5	
[2H]C([2H])([2H])C(=O)N1CC[C@@H]1C(=O)N[C@H](C(=O)OC)C(C)C [A-2-9]		5250	84.7	
[2H]C([2H])([2H])OC(=O)[C@@H](NC(=O)C1CCN1C(C)=O)C(C)C (stereo partly drawn) [A-2-4]		3770	80.2	
COC(=O)[C@@H](NC(=O)C1CCN1C(=O)C1CC1)C(C)C (stereo partly drawn) [A-2-2]		405	21.5	
COC(=O)[C@@H](NC(=O)[C@@H]1CCN1C(=O)C1CC1)C(C)C [A-2-21]	> 4.82			
COC(=O)[C@@H](NC(=O)c1ccc[nH]1)C(C)C [A-1-7]				AUC(0-t) ([2]; in vivo, oral gavage 10 mg/kg): 154 ng·h/mL; bioavailability [2, 8]: 27.3%; immobility time in the tail suspension test (CUMS model mice [5]): rapidly reverse the prolonged immobility time; immobility time in the forced swimming test (CUMS model mice [6]): rapidly reverse the prolonged immobility time
COC(=O)[C@@H](NC(=O)[C@@H]1CCN1C(C)=O)C(C)C [A-2-6] (Ac-[Aze]-Val-OMe)		3340	148	
COC(=O)[C@@H](NC(=O)[C@@H]1CCN1C(=O)c1ccccc1)C(C)C [A-2-23] (Bz-[Aze]-Val-OMe)	> 4.82			
COC(=O)[C@@H](NC(=O)[C@H]1CCN1C(=O)c1ccc(C(F)(F)F)cc1)C(C)C [A-2-24]	> 4.82			
[2H]C([2H])([2H])C(=O)N1CC[C@H]1C(=O)N[C@H](c1ncco1)C(C)C [B-2-2]				AUC(0-t) ([2]; in vivo, oral gavage 10 mg/kg): 6950 ng·h/mL; bioavailability [2, 8]: 153%
C[C@H](NC(=O)[C@@H]1CCCN1)C(=O)O [D5-PA, reference compound] (H-Pro-Ala-OH)	0.877	38	3.8	Rank Papp (MDR1-MDCK II cells): Low; Papp A→B at 2.5 h, 2 µM [3]: 0.15 ×10⁻⁶ cm/s; Papp B→A at 2.5 h, 2 µM [3]: 0.3 ×10⁻⁶ cm/s; AUC(0-t) [4]: 11.5 ng·h/mL; bioavailability [4]: 0.71%
COC(=O)[C@@H](NC(=O)[C@H]1CCN1C(=O)c1ccccc1)C(C)C [A-2-22] (Bz-[dAze]-Val-OMe)	> 4.82			
[2H]C([2H])([2H])C(=O)N1CC[C@H]1C(=O)N[C@H](C(=O)OC)C(C)C [A-2-8]		3310	88.5	
CC(=O)N1CC[C@@H]1C(=O)NC(c1cc2ccccc2[nH]1)C(C)C (stereo partly drawn) [B-2-33]	> 4.82	3360	68.3	
COC(=O)[C@@H](NC(=O)[C@H]1CCN1C(C)=O)C(C)C [A-2-7] (Ac-[dAze]-Val-OMe)		3990	83.9	
CC(=O)N1CCC1C(=O)N[C@H](c1ncc[nH]1)C(C)C (stereo partly drawn) [B-2-1]		1660	44.9	

The next lines start with results.

half-life at 5 µM [1] [h]	AUC(0-t) ([2]; plasma, oral gavage 10 mg/kg) [ng·h/mL]	bioavailability [2, 7] [%]	SMILES	also measured
3.24			COC(=O)[C@@H](NC(=O)[C@@H]1CCN1C(=O)c1ccc(C(F)(F)F)cc1)C(C)C [A-2-25]	
0.417			CC(C)[N+](C)(CCOC(=O)C1c2ccccc2Oc2ccccc21)C(C)C [Propantheline, reference compound]	
3.83			COC(=O)[C@@H](NC(=O)[C@H]1CCN1C(=O)c1ccc(F)cc1)C(C)C [A-2-26]	
> 4.82			COC(=O)[C@@H](NC(=O)[C@@H]1CCN1C(=O)c1ccco1)C(C)C [A-2-31]	
> 4.82			COC(=O)[C@@H](NC(=O)[C@@H]1CCN1C(=O)c1cccs1)C(C)C [A-2-33]	
4.75			COC(=O)[C@@H](NC(=O)[C@@H]1CCN1C(=O)c1ccc(F)cc1)C(C)C [A-2-27]	
> 4.82			[2H]C([2H])([2H])C(=O)N1CC[C@H]1C(=O)N[C@@H](c1ncco1)C(C)C [B-2-42]	
3.78			COC(=O)[C@@H](NC(=O)[C@@H]1CCN1C(=O)c1ccc(Cl)cc1)C(C)C [A-2-29]	
0.421			COC(=O)[C@@H](NC(=O)[C@H](C)NC(C)=O)C(C)C [ZZL-7, acetyl-L-alanyl-L-valine methyl ester, reference compound] (Ac-Ala-Val-OMe)	AUC(0-t) [2, 9]: 138 ng·h/mL; bioavailability [2, 9]: 7.5%
> 4.82			COc1ccc(C(NC(=O)[C@H]2CCN2C(C)=O)C(C)C)cc1 (stereo partly drawn) [B-2-24]	
